Experimental data from patent US20130252935A1, “Monobactams” (PFIZER INC., priority 2010, published 2013).
In brackets after ≈: the same amount, converted by molar mass.

Tests used:
Format in all cases: cell-based
[1] = tested on: Pseudomonas aeruginosa UC-12120; assay: minimum inhibitory concentration (MIC) testing according to CLSI guidelines, Pseudomonas aeruginosa; conditions: UC-12120, wild-type, labeled as 1091-05, overnight incubation, lower of duplicate values; for MIC: Pseudomonas aeruginosa, UC12120, read-out: AB-MBT: Pseudomonas aeruginosa 1091-05: MIC (MstRcn)
Method: (§1) In order to assess the compounds biological activity, the in vitro anti-bacterial activity of selected compounds described in the Examples 1-69 was evaluated by minimum inhibitory concentration (MIC) testing according to Clinical and Laboratory Standards Institute (CLSI, formerly NCCLS) guidelines. See: Clinical and Laboratory Standards Institute. Methods for Dilution Antimicrobial Susceptibility Tests for Bacteria that Grow Aerobically; Approved Standard-Eighth Edition. CLSI document M7-A8 [ISBN 1-56238-689-1]. Clinical and Laboratory Standards Institute, 940 West Valley Road, Suite 1400, Wayne, Pa. 19087-1898 USA, 2006; also Clinical and Laboratory Standards Institute. Performance Standards for Antimicrobial Susceptibility Testing; Twentieth Informational Supplement. CLSI document M100-S20 [ISBN1-56238-716-2]. Clinical and Laboratory Standards Institute.
(§2) The MIC determination is a standard laboratory method for evaluating the antibacterial activity of a compound. The MIC represents the lowest drug concentration that inhibits visible growth of bacteria following overnight incubation. […] Typically, the drug concentration range is broken down into 2-fold increments (e.g. 0.06 μg/mL, 0.12 μg/mL. 0.25 μg/mL, 0.50 μg/mL, 1.0 μg/mL, etc.) and the various drug concentrations are all individually incubated overnight with approximately the same number of bacteria. The MIC is then determined by visually inspecting the drug effect at each concentration, and identifying the lowest drug concentration that has inhibited bacterial growth as compared to the drug free control. Typically, bacteria continue to grow at drug concentrations lower than the MIC and don't grow at concentrations at and above the MIC.
(§3) The MIC values described in Table 1 below were derived from assays wherein each test compound was evaluated in duplicate. In cases where the duplicate values varied by 0-2-fold, the lower of the two values was reported below. Generally speaking, if the duplicate values varied by more than 2-fold, the assay was considered non-valid and was repeated until the variation between duplicate runs was ≦2-fold. In line with the CLSI guidelines referred to above, both control organisms and reference compounds were utilized in each MIC assay to provide proper quality control. MIC values generated with these control organisms and reference compounds were required to fall within a defined range for the assay to be considered valid and be included herein. Those skilled in the art will recognize that MIC values can and do vary from experiment to experiment. Generally speaking, it should be recognized that MIC values often vary +/−2-fold from experiment to experiment. While a single MIC is reported for each compound and each microorganism, the reader should not conclude that each compound was only tested once. Several of the compounds were subjected to multiple tests. The data reported in Table 1 is reflective of the compounds relative activity and different MICs may have been generated on these occasions in light with the guidelines described above.
(§4) The following bacterial strains were used in these MIC determinations:
1) Pseudomonas aeruginosa UC-12120: Wild-type, labeled as 1091-05;

[2] = tested on: Acinetobacter baumannii/haemolyticus AB-3167; assay: minimum inhibitory concentration (MIC) testing according to CLSI guidelines, Acinetobacter; conditions: multidrug-resistant clinical isolate AB-3167, overnight incubation, lower of duplicate values; for MIC: Acinetobacter baumannii, read-out: AB-MBT: Acinetobacter baumanii AB-3167: MIC (MstRcnt)
Method: as §1, §2, §3, §4
3) Acinetobacter baumannii/haemolyticus: Multidrug-resistant clinical isolate, labeled as AB-3167.

[3] = tested on: Klebsiella pneumoniae 1000-02; assay: minimum inhibitory concentration (MIC) testing according to CLSI guidelines, Klebsiella pneumoniae; conditions: ciprofloxacin-resistant, ESBL-expressing clinical isolate 1000-02, overnight incubation, lower of duplicate values; for MIC: Klebsiella pneumoniae, read-out: AB-MBT: Klebsiella pneumoniae 1000-02: MIC (MstRcnt)
Method: as §1, §2, §3, §4
2) Klebsiella pneumoniae: Ciprofloxacin-resistant isolate, expresses extended-spectrum beta-lactamases (ESBL), clinical isolate, labeled as 1000-02;

`CC(C)(O/N=C(\C(=O)N[C@@H]1C(=O)N(S(=O)(=O)O)[C@@H]1CNC(=O)C1CN(Cc2cc(=O)c(O)c[nH]2)C1)c1csc(N)n1)C(=O)O` [Example 9, 2-({[(1Z)-1-(2-amino-1,3-thiazol-4-yl)-2-{[(2R,3S)-2-{[({1-[(5-hydroxy-4-oxo-1,4-dihydropyridin-2-yl)methyl]azetidin-3-yl}carbonyl)amino]methyl}-4-oxo-1-sulfoazetidin-3-yl]amino}-2-oxoethylidene]amino}oxy)-2-methylpropanoic acid] was tested, and the MIC [1] was 4 µg/mL (≈ 6.09 µM), the MIC [2] was 2 µg/mL (≈ 3.05 µM) and the MIC [3] was 4 µg/mL (≈ 6.09 µM).
Compound `Nc1nc(/C(=N/OC2(C(=O)O)CCCC2)C(=O)N[C@@H]2C(=O)N(S(=O)(=O)O)[C@@H]2CNC(=O)NCc2cc(=O)c(O)cn2O)cs1` [Example 26, 1-({[(1Z)-1-(2-amino-1,3-thiazol-4-yl)-2-({(2R,3S)-2-[({[(1,5-dihydroxy-4-oxo-1,4-dihydropyridin-2-yl)methyl]carbamoyl}amino)methyl]-4-oxo-1-sulfoazetidin-3-yl}amino)-2-oxoethylidene]amino}oxy)cyclopentanecarboxylic acid] has an MIC [1] of 0.125 µg/mL (≈ 0.19 µM), an MIC [2] of 0.25 µg/mL (≈ 0.38 µM) and an MIC [3] of 0.125 µg/mL (≈ 0.19 µM).
`C[C@H](NC(=O)c1cc(=O)c(O)cn1O)C(=O)NC[C@@H]1[C@H](NC(=O)/C(=N\OC(C)(C)C(=O)O)c2csc(N)n2)C(=O)N1S(=O)(=O)O` [Example 54, 2-({[(1Z)-1-(2-amino-1,3-thiazol-4-yl)-2-({(2R,3S)-2-[({N-[(1,5-dihydroxy-4-oxo-1,4-dihydropyridin-2-yl)carbonyl]-L-alanyl}amino)methyl]-4-oxo-1-sulfoazetidin-3-yl}amino)-2-oxoethylidene]amino}oxy)-2-methylpropanoic acid] showed an MIC [1] of 0.25 µg/mL (≈ 0.371 µM), an MIC [2] of 0.25 µg/mL (≈ 0.371 µM) and an MIC [3] of 1 µg/mL (≈ 1.48 µM).
`CC(C)(O/N=C(\C(=O)N[C@@H]1C(=O)N(S(=O)(=O)O)[C@@H]1CNC(=O)c1ccnc(-c2cc(=O)c(O)c[nH]2)n1)c1csc(N)n1)C(=O)O` [Example 22, 2-({[(1Z)-1-(2-amino-1,3-thiazol-4-yl)-2-({(2R,3S)-2-[({[2-(5-hydroxy-4-oxo-1,4-dihydropyridin-2-yl)pyrimidin-4-yl]carbonyl}amino)methyl]-4-oxo-1-sulfoazetidin-3-yl}amino)-2-oxoethylidene]amino}oxy)-2-methylpropanoic acid] was tested, and the MIC [1] was 4 µg/mL (≈ 6.01 µM), the MIC [2] was 16 µg/mL (≈ 24 µM) and the MIC [3] was 32 µg/mL (≈ 48.1 µM).
With `CC(C)(O/N=C(\C(=O)N[C@@H]1C(=O)N(S(=O)(=O)O)[C@@H]1CNC(=O)c1ccc(NC(=O)c2cc(=O)c(O)cn2O)cc1)c1csc(N)n1)C(=O)O` [Example 52, 2-({[(1Z)-1-(2-amino-1,3-thiazol-4-yl)-2-{[(2R,3S)-2-{[(4-{[(1,5-dihydroxy-4-oxo-1,4-dihydropyridin-2-yl)carbonyl]amino}benzoyl)amino]methyl}-4-oxo-1-sulfoazetidin-3-yl]amino}-2-oxoethylidene]amino}oxy)-2-methylpropanoic acid] the MIC [1] was 0.5 µg/mL (≈ 0.692 µM), the MIC [2] was 0.5 µg/mL (≈ 0.692 µM) and the MIC [3] was 1 µg/mL (≈ 1.38 µM).
Work on `C[C@H](O/N=C(\C(=O)N[C@@H]1C(=O)N(S(=O)(=O)O)[C@@H]1CNC(=O)NCc1cc(=O)c(O)cn1O)c1nc(N)sc1Cl)C(=O)O` [Example 34, (2S)-2-({[(1Z)-1-(2-amino-5-chloro-1,3-thiazol-4-yl)-2-({(2R,3S)-2-[({[(1,5-dihydroxy-4-oxo-1,4-dihydropyridin-2-yl)methyl]carbamoyl}amino)methyl]-4-oxo-1-sulfoazetidin-3-yl}amino)-2-oxoethylidene]amino}oxy)propanoic acid] yielded an MIC [1] of 0.125 µg/mL (≈ 0.191 µM), an MIC [2] of 0.25 µg/mL (≈ 0.383 µM) and an MIC [3] of 0.5 µg/mL (≈ 0.766 µM).
Work on `CC(C)(O/N=C(\C(=O)N[C@@H]1C(=O)N(S(=O)(=O)O)[C@@H]1CNC(=O)CCC(=O)NCc1cc(=O)c(O)cn1O)c1csc(N)n1)C(=O)O` [Example 42, 2-({[(1Z)-1-(2-amino-1,3-thiazol-4-yl)-2-{[(2R,3S)-2-{[(4-{[(1,5-dihydroxy-4-oxo-1,4-dihydropyridin-2-yl)methyl]amino}-4-oxobutanoyl)amino]methyl}-4-oxo-1-sulfoazetidin-3-yl]amino}-2-oxoethylidene]amino}oxy)-2-methylpropanoic acid] yielded an MIC [1] of 0.125 µg/mL (≈ 0.182 µM), an MIC [2] of 0.125 µg/mL (≈ 0.182 µM) and an MIC [3] of 0.5 µg/mL (≈ 0.726 µM).
Work on `Nc1nc(/C(=N/OC2(C(=O)O)CCCC2)C(=O)N[C@@H]2C(=O)N(S(=O)(=O)O)[C@@H]2CNC(=O)c2cc(=O)c(O)cn2O)cs1` [Example 66, 1-({[(1Z)-1-(2-amino-1,3-thiazol-4-yl)-2-{[(2R,3S)-2-({[(1,5-dihydroxy-4-oxo-1,4-dihydropyridin-2-yl)carbonyl]amino}methyl)-4-oxo-1-sulfoazetidin-3-yl]amino}-2-oxoethylidene]amino}oxy)cyclopentanecarboxylic acid] yielded an MIC [1] of 0.5 µg/mL (≈ 0.794 µM), an MIC [2] of 0.5 µg/mL (≈ 0.794 µM) and an MIC [3] of 0.125 µg/mL (≈ 0.199 µM).
For `CC(C)(O/N=C(\C(=O)N[C@@H]1C(=O)N(S(=O)(=O)O)[C@@H]1CNC(=O)CNC(=O)c1cc(=O)c(O)cn1O)c1csc(N)n1)C(=O)O` [Example 36, 2-({[(1Z)-1-(2-amino-1,3-thiazol-4-yl)-2-({(2R,3S)-2-[({N-[(1,5-dihydroxy-4-oxo-1,4-dihydropyridin-2-yl)carbonyl]glycyl}amino)methyl]-4-oxo-1-sulfoazetidin-3-yl}amino)-2-oxoethylidene]amino}oxy)-2-methylpropanoic acid], the MIC [1] was 0.125 µg/mL (≈ 0.189 µM), the MIC [2] was 0.25 µg/mL (≈ 0.378 µM) and the MIC [3] was 1 µg/mL (≈ 1.51 µM).
In the case of `CC(C)(O/N=C(\C(=O)N[C@@H]1C(=O)N(S(=O)(=O)O)[C@@H]1CNC(=O)c1ccc(S(=O)(=O)NCc2cc(=O)c(O)cn2O)cc1)c1csc(N)n1)C(=O)O` [Example 39], the “AB-MBT: Pseudomonas aeruginosa 1091-05: MIC (MstRcn)” value [1] is reported as 0.250 µg/mL, the “AB-MBT: Acinetobacter baumanii AB-3167: MIC (MstRcnt)” value [2] is reported as 0.500 µg/mL and the “AB-MBT: Klebsiella pneumoniae 1000-02: MIC (MstRcnt)” value [3] is reported as 1.00 µg/mL.
Work on `CC(C)(O/N=C(\C(=O)N[C@@H]1C(=O)N(S(=O)(=O)O)[C@@H]1Cn1cc(-c2cc(=O)c(O)cn2O)nn1)c1csc(N)n1)C(=O)O` [Example 3, 2-({[(1Z)-1-(2-amino-1,3-thiazol-4-yl)-2-{[(2R,3S)-2-{[4-(1,5-dihydroxy-4-oxo-1,4-dihydropyridin-2-yl)-1H-1,2,3-triazol-1-yl]methyl}-4-oxo-1-sulfoazetidin-3-yl]amino}-2-oxoethylidene]amino}oxy)-2-methylpropanoic acid] yielded an MIC [1] of 0.125 µg/mL (≈ 0.199 µM), an MIC [2] of 0.5 µg/mL (≈ 0.797 µM) and an MIC [3] of 0.25 µg/mL (≈ 0.398 µM).
In the case of `Nc1nc(/C(=N/OC2(C(=O)O)CCOCC2)C(=O)N[C@@H]2C(=O)N(S(=O)(=O)O)[C@@H]2CNC(=O)NCc2cc(=O)c(O)cn2O)cs1` [Example 27, 4-({[(1Z)-1-(2-amino-1,3-thiazol-4-yl)-2-({(2R,3S)-2-[({[(1,5-dihydroxy-4-oxo-1,4-dihydropyridin-2-yl)methyl]carbamoyl}amino)methyl]-4-oxo-1-sulfoazetidin-3-yl}amino)-2-oxoethylidene]amino}oxy)tetrahydro-2H-pyran-4-carboxylic acid], the MIC [1] is reported as 1 µg/mL (≈ 1.48 µM), the MIC [2] is reported as 2 µg/mL (≈ 2.96 µM) and the MIC [3] is reported as 1 µg/mL (≈ 1.48 µM).
With `CC(C)(O/N=C(\C(=O)N[C@@H]1C(=O)N(S(=O)(=O)[O-])[C@@H]1CNC(=O)c1coc(-c2cc(=O)c(O)cn2O)n1)c1csc(N)n1)C(=O)[O-].[Na+].[Na+]` [Example 17, 2-({[(1Z)-1-(2-amino-1,3-thiazol-4-yl)-2-({(2R,3S)-2-[({[2-(1,5-dihydroxy-4-oxo-1,4-dihydropyridin-2-yl)-1,3-oxazol-4-yl]carbonyl}amino)methyl]-4-oxo-1-sulfoazetidin-3-yl}amino)-2-oxoethylidene]amino}oxy)-2-methylpropanoic acid, bis sodium salt] the “AB-MBT: Pseudomonas aeruginosa 1091-05: MIC (MstRcn)” value [1] was 0.125 µg/mL, the “AB-MBT: Acinetobacter baumanii AB-3167: MIC (MstRcnt)” value [2] was 1.00 µg/mL and the “AB-MBT: Klebsiella pneumoniae 1000-02: MIC (MstRcnt)” value [3] was 1.00 µg/mL.
